# Test results: patent publication US7939510B2, “Di(uridine 5′-)tetraphosphate and salts thereof” (priority 1997, dated 2011)
# Read-outs that look alike come from different tables or passages of the source.
# Assays:
# [1] = type: physicochemical
# Description: The maximum solubility in water was thus determined to be ca. 900 mg/mL. […] The tetrasodium salt of P^1,P^4-di(uridine 5′-) tetraphosphate was thus determined to have an excellent solubility and stability profile suitable for pharmaceutical applications. […]
# rabbits = assay: Local ocular tolerance and subchronic ocular toxicity study in rabbits; type: in vivo; conditions: multiple daily administrations over six weeks
# Description: (§1) A study in rabbits examined local ocular tolerance and subchronic ocular toxicity after multiple daily administrations over a six-week period.
# (§2) A study in rabbits examines local ocular tolerance and subchronic ocular toxicity after multiple daily administrations over a six-week period.
# rat = assay: Single-dose acute inhalation toxicity study in rat; type: in vivo; conditions: rats
# dog = assay: Single-dose acute inhalation toxicity study in dog; type: in vivo; conditions: dogs
# dogs = assay: Single-dose acute intravenous toxicity study in dogs; type: in vivo
# [2] = system: normal healthy male volunteers; type: in vivo, human
# Description: Forty non-smokers and 35 smokers were evaluated in 5 dosing cohorts of 16 volunteers, comprised of 12 receiving a single aerosolized dose of P^1,P^4-di(uridine 5′-) tetraphosphate, tetrasodium salt (20-400 mg) and 4 receiving placebo (normal saline).
# [3] = Nonclinical toxicologic profile (overall conclusion from the toxicity studies)
# Description: as §1, §2
Substance,stability profile [1],adverse findings in ocular toxicology studies (rabbits; present-tense example),toxicology profile ([3]; present-tense example),also measured
"P^1,P^4-di(uridine 5′-)tetraphosphate, monolithiummonopotassiumdisodium salt",excellent,,,
"P^1,P^4-di(uridine 5′-)tetraphosphate, tetrasodium salt",excellent,,,degradation [1]: less than 1.5%; maximum solubility in water [1]: ca. 900 mg/mL; solubility profile [1]: excellent; adverse findings in ocular toxicology studies (rabbits): No adverse findings; acute toxicity (rat): low degree of acute toxicity; acute toxicity (dog): low degree of acute toxicity; acute toxicity (dogs): low degree of acute toxicity; stimulating the expectoration of sputum compared to placebo ([2]; conclusion): effective; safety and tolerability ([2]; in vivo): safe and well-tolerated; effect to induce the expectoration of sputum ([2]; non-smokers): observed; stimulation of sputum expectoration over the next hour of sputum collection ([2]; smokers): sustained; toxicology profile [3]: excellent toxicology profile with a wide safety margin
"P^1,P^4-di(uridine 5′-)tetraphosphate, disodiumdipotassium salt",excellent,No adverse findings,excellent toxicology profile with a wide safety margin,
"P^1,P^4-di(uridine 5′-)tetraphosphate, monopotassiumtrilithium salt",excellent,No adverse findings,excellent toxicology profile with a wide safety margin,
"P^1,P^4-di(uridine 5′-)tetraphosphate, tetrapotassium salt",excellent,No adverse findings,excellent toxicology profile with a wide safety margin,
"P^1,P^4-di(uridine 5′-)tetraphosphate, tetralithium salt",excellent,No adverse findings,excellent toxicology profile with a wide safety margin,
